Reference: US8980908B2, “Non-peptidyl, potent, and selective mu opioid receptor antagonists and their use in treating opioid addiction and opioid induced constipation” (Virginia Commonwealth University, priority 2009, dated 2015)
“And” between values parts separate entries of the source, which are not always exact repeats. Equal entries are not always repeated. Where two headings read alike, the source gives them in different places.

Tests used:
[1] = tested on: morphine antinociception in mice; experiment: Warm-water tail immersion test, blockade of morphine antinociception (Example 2); type: in vivo, mouse (Swiss Webster); conditions: s.c., 5 min before morphine 10 mg/kg s.c.; 56 °C
DOR [2] = target: DOR (UniProt P41143); type: binding; design: Ki δ; four experiments; other: three experiments; other: SNC80 5 μM; Ki δ
DOR [3] = target: DOR (UniProt P41143); experiment: DOR [35S]GTPγS binding assay (Example 5); type: biochemical; design: Ki δ; four experiments; other: three experiments; other: SNC80 5 μM; Ki δ
Experimental: (§1) The KOR full agonist 2-(3,4-dichlorophenyl)-N-methyl-N-[(1R,2R)-2-pyrrolidin-1-ylcyclohexyl]acetamide 17 (U50,488)41 and DOR full agonist 4-[(R)-[(2S,5R)-4-allyl-2,5-dimethylpiperazin-1-yl](3-methoxyphenyl)methyl]-N,N-diethylbenzamide 18 (SNC80)42 were included in the assays as reference compounds for a maximal effect at the KOR and the DOR, respectively.
(§2) The radioligand binding assay and the [^35S]GTPγS binding assay were conducted using monoclonal OR-expressed Chinese hamster ovarian (CHO) cell lines as described previously.^22,29,36,37 Briefly, for the competition binding assay, [^3H]NLX, [^3H]DPN, and [^3H]NTI were used to label the MOR, the KOR, and the DOR, respectively. Aliquots of a membrane protein (30 μg) were incubated with the corresponding radioligand in the presence of different concentrations of the ligand under investigation in TME buffer (50 mM Tris, 3 mM MgCl2, 0.2 mM EGTA, pH 7.7) at 30° C. for 1.5 h. The bound radioactive ligand was separated from the free radioligand by filtration using the Brandel harvester (Biomedical Research & Development Laboratories, MD). […] The potency of the drugs in displacing the specific binding of the radioligand was determined by linear regression analysis of Hill plots. […] The [^35S]GTPγS functional assays were conducted in the same cell membranes used for the receptor binding assays. Membrane proteins (10 μg) were incubated with varying concentrations of compounds, GDP (10 μM) and 0.1 nM [^35S]GTPγS in assay buffer (50 mM Tris, 3 mM MgCl2, 100 mM NaCl, 0.2 mM EGTA, pH 7.7) for 1.5 h at 30° C. Nonspecific binding was determined with 20 μM unlabeled GTPγS.

[4] = tested on: morphine antinociceptive effect in mice; conditions: antagonizing morphine 10 mg/kg; s.c.; cited from earlier work
MOR [5] = target: T1, MOR (Mus musculus, UniProt P42866); experiment: [35S]GTPγS functional assay (Example 1); type: biochemical; design: expressed in transfected cells; host or cells: CHO (Chinese hamster ovary) cell line, membrane preparation
KOR [6] = target: T2, KOR (Homo sapiens, UniProt P41145); experiment: Competitive radioligand binding, [3H]diprenorphine, OR-expressed CHO membranes (Examples 5 and 6)
T2 construct: expressed in transfected cells; host or cells: CHO (Chinese hamster ovary) cell line, membrane preparation

KOR [7] = target: T2, KOR; experiment: KOR [35S]GTPγS binding assay (Example 5); type: biochemical; conditions: for Emax: read-out: KOR [35S]GTPγS Binding % Emax of U50,488
Experimental: as §1, §2

MOR [8] = target: T1, MOR; experiment: biochemical; conditions: read-out: MOR [35S]GTPγS Binding % Emax of DAMGO
MOR [9] = target: T1, MOR; experiment: Competitive radioligand binding, [3H]naloxone, OR-expressed CHO membranes (Examples 5 and 6); design: expressed in transfected cells; host or cells: CHO (Chinese hamster ovary) cell line, membrane preparation; conditions: Table 8; Ki ratio
MOR [10] = target: T1, MOR; conditions: [35S]GTPγS assays
[11] = tested on: morphine antinociceptive effect in mice; experiment: Warm-water tail immersion assay, antagonism of morphine antinociception (Example 5); type: in vivo, mouse (Swiss-Webster); conditions: antagonizing morphine 10 mg/kg; s.c.
MOR [12] = target: T1, MOR; experiment: 35S-GTP[γS]-binding functional assay in MOR expressing CHO cells (Example 2); type: biochemical; design: expressed in transfected cells; host or cells: CHO (Chinese hamster ovary) cell line, membrane preparation
Experimental: Furthermore, these systems express the receptor at high density to provide optimal signal-to-noise ratios in the radioligand and ^35S-GTP[γS] binding assays.
Aliquots of a membrane preparation were incubated with the radioligands in the presence of different concentrations of the drug under investigation at 30° C. for 1 h. […] The potency of the drugs in displacing the specific binding of the radioligand was determined from data using linear regression analysis of Hill plots. The IC50 values will then be determined and corrected to K1 values using the Cheng-Prusoff equation. Functional assays, including ^35S-GTP[γS]-binding assay were conducted in the same cell membranes used for the receptor binding assays.

[13] = target: mu, delta and kappa opioid receptors; conditions: cited from earlier work
patients with OIC = conditions: cited from earlier work
[14] = tested on: chronic morphine-exposed mice; experiment: Opioid withdrawal assays in morphine-pelleted mice; conditions: naltrexone 1 mg/kg, counted over 20 minutes
[15] = read-out: Ki δ; Table 8 (NAQ analogues); four experiments
[16] = read-out: DOR [35S]GTPγS Binding EC50; three experiments

With “17-Cyclopropylmethyl-3,14β-dihydroxy-4,5α-epoxy-6α-[(3′-isoquinolyl)acetamido]morphinan [Compound 9]” the “AD50 value for blockade of morphine antinociception” value [1] was 0.456 (0.277 to 0.789) mg/kg (95% C.L.), the Ki (DOR [2]; Table 8 (NAQ analogues); four experiments; read-out: Ki δ) was 162 ± 15 nM and the Ki (DOR [2]; Table 12 (Example 6); read-out: Ki δ) was 162 ± 15 nM. For the same compound, the “DOR [35S]GTPγS Binding % Emax of SNC80” value (DOR [3]; SNC80 5 μM) was 53.5 ± 5.4%, the EC50 (DOR [3]; three experiments; read-out: DOR [35S]GTPγS Binding EC50) was 98.6 ± 23.7 nM and the “AD50 values (data taken from Li, et al.)” value [4] was 0.45 (0.27-0.78) mg/kg (95% CL).
With `C[C@@H](O)[C@H](NC(=O)[C@H]1NC(=O)[C@H]([C@@H](C)O)NC(=O)[C@H](CCCNC(=N)N)NC(=O)[C@@H](Cc2c[nH]c3ccccc23)NC(=O)[C@H](Cc2ccc(O)cc2)NC(=O)[C@@H](NC(=O)[C@H](N)Cc2ccccc2)CSSC1(C)C)C(N)=O` [CTAP, D-Phe-Cys-Tyr-D-Trp-Arg-Thr-Pen-Thr-NH2] the “Percent Max of DAMGO” value (MOR [5]; Emax of compound vs Emax of DAMGO (normalized to 100%)) was 0.00%.
With `COc1c(C(=O)N[C@H]2CC[C@@]3(O)[C@H]4Cc5ccc(O)c6c5[C@@]3(CCN4CC3CC3)[C@H]2O6)nc(Cl)c2ccccc12` [Compound 4, 17-Cyclopropylmethyl-3,14β-dihydroxy-4,5α-epoxy-6α-(1-chloro-4-methoxyisoquinoline-3-carboxamido)morphinan] the Ki (KOR [6]) was 22.2 ± 2.1 nM, the Ki (DOR [2]; [15]) was 33.9 ± 0.5 nM and the “DOR [35S]GTPγS Binding % Emax of SNC80” value (DOR [3]; SNC80 5 μM) was 54.8 ± 0.1%. For the same compound, the EC50 (DOR [3]; [16]) was 32.6 ± 5.1 nM, the EC50 (KOR [7]) was 26.4 ± 3.9 nM and the Emax (KOR [7]) was 7.1 ± 0.5%. It also gave an Emax (MOR [8]) of 51 ± 0.4%.
With `O=C(N[C@H]1CC[C@@]2(O)[C@H]3Cc4ccc(O)c5c4[C@@]2(CCN3CC2CC2)[C@H]1O5)c1cc2cc([N+](=O)[O-])ccc2cn1` [Compound 11, 17-Cyclopropylmethyl-3,14β-dihydroxy-4,5α-epoxy-6α-(6-nitroisoquinoline-3-carboxamido)morphinan] the Ki (KOR [6]) was 27.9 ± 2 nM, the Ki (DOR [2]; [15]) was 94.7 ± 1.1 nM and the “Selectivity δ/μ” value (MOR [9]) was 16. For the same compound, the “Selectivity κ/μ” value (MOR [9]) was 4.9, the “DOR [35S]GTPγS Binding % Emax of SNC80” value (DOR [3]; SNC80 5 μM) was 67.7 ± 2.0% and the EC50 (DOR [3]; [16]) was 108.1 ± 0.8 nM. For the same compound, the EC50 (KOR [7]) was 62.6 ± 10.4 nM, the Emax (KOR [7]) was 21.1 ± 0.4% and the “Functional Selectivity δ/μ” value (MOR [10]) was 3.4. The “Functional Selectivity κ/μ” value (MOR [10]) was 2.0, the AD50 values [11] was 0.92 (0.51-1.67) mg/kg (95% CL) and the Emax (MOR [8]) was 12.5 ± 1.4%.
For `C[C@@H](NC(=O)[C@@H](N)Cc1ccc(O)cc1)C(=O)NCC(=O)N(C)[C@@H](Cc1ccccc1)C(=O)NCCO` [DAMGO, reference compound], the “Emax (% Stim)” value (MOR [12]; n=3) was 366.5 ± 23.0 % Stim, the “Percent Max of DAMGO” value (MOR [12]; normalized to full agonist DAMGO (3 μM)) was 100.0 ± 6.2% and the Emax (MOR [5]; DAMGO reference) was 366±23 % stimulation over basal.
For `C[N@+]1(CC2CC2)CC[C@]23c4c5ccc(O)c4O[C@H]2C(=O)CC[C@@]3(O)[C@H]1C5` [MNTX, methylnaltrexone], the “Ki value ratio delta/mu” value [13] is given as “≈ 24”, the “Ki value ratio kappa/mu” value [13] is given as 10 and the “efficiency to induce SBM” value (patients with OIC; human, in vivo) is given as at most 62%. The “patients with laxation within 4 hours after the first dose” value (patients with OIC; two major clinical trials, subcutaneous) was 48% and 62%.
In the case of `O=C1CC[C@@]2(O)[C@H]3Cc4ccc(O)c5c4[C@@]2(CCN3CC2CC2)[C@H]1O5` [Naltrexone], the escape jumps [14] is reported as 30.0±12.1, the wet-dog shakes [14] is reported as 14.8±2.2 and the AD50 values [11] is reported as 0.006 (0.003-0.014) mg/kg (95% CL).
For `COc1cccc2c1[C@]13CCN(CC4CC4)[C@H](C2)[C@]1(OC)CCC(=O)C3` [cyprodime], the “Ki value ratio delta/mu” value [13] is listed as “≈ 40” and the “Ki value ratio kappa/mu” value [13] is listed as “≈ 45”.
